Measurements: patent publication US20220356186A1, “PERK INHIBITING PYRROLOPYRIMIDINE COMPOUNDS” (HiberCell, Inc., priority 2019, published 2022)
Read-outs that look alike come from different tables or passages of the source.

What was measured:
[1] = biological target: T1, EIF2AK3 (PERK) catalytic domain (amino acids 536-1116) (Homo sapiens, UniProt Q9NZJ5); test: PERK in vitro activity assay (isolated), TR-FRET kinase assay; assay type: biochemical; conditions: isolated PERK enzyme, 1.5 μM ATP; read-out: Biochemical IC50
T1 construct: EIF2AK3 (PERK) catalytic domain (amino acids 536-1116)
T1 sequence (Q9NZJ5 536-1116): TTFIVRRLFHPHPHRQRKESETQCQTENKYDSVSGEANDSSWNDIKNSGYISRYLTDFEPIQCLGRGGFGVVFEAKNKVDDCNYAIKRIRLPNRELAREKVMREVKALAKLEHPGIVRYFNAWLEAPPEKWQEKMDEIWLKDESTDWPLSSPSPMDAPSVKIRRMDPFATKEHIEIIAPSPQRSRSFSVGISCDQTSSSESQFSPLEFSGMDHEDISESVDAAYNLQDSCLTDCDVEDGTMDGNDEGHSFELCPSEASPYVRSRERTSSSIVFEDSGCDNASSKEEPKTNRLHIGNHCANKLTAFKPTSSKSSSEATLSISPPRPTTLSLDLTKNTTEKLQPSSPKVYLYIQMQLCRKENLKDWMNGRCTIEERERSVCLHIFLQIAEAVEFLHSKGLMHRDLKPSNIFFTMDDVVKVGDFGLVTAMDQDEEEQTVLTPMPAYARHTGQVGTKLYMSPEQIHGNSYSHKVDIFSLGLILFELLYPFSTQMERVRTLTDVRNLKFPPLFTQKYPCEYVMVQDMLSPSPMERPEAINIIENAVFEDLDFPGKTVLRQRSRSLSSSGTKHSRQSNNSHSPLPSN
Outline: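 TR-FRET read-out: after EDTA stop (10 mM final), Tb-labelled phospho-eIF2a antibody (2 nM) for 90 min; IC50 via 4-parameter nonlinear fit. Reaction: PERK aa 536-1116, GFP-eIF2a 100-200 nM, HEPES pH 7.5 with MgCl2/EGTA/Brij-35, 45 min, room temperature, started by enzyme.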

[2] = tested on: GFP-eIF2α in HEK293 cells; test: PERK cellular assay, TR-FRET in HEK293-EGFP-eIF2a cells after tunicamycin-induced ER stress; assay type: cell-based; conditions: HEK293-EGFP-eIF2a cells, tunicamycin 2 hours, read-out: Cellular eIF2α IC50
Outline: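 Compounds were added 30 min before a 2 h tunicamycin ([…]) challenge of lentivirally made GFP-eIF2α HEK293 cells, 5000/well; lysate TR-FRET ratio was the read-out.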

SMILES	IC50 [1]	IC50 ([2]; Homo sapiens, HEK293, 2 h)	IC50 [2]	IC50 ([2]; Homo sapiens)
Cc1cc(NC(=O)C(C)(O)c2ccccc2)ccc1-c1cn(C)c2ncnc(N)c12 (stereo not shown) [Example 7, N-(4-(4-amino-7-methyl-7H-pyrrolo[2,3-d]pyrimidin-5-yl)-3-methylphenyl)-2-hydroxy-2-phenylpropanamide]	51 to 100 nM	101 to 250 nM	–	–
Cc1nc(N)c2c(-c3ccc(NC(=O)C(O)c4cc(F)cc(C(F)(F)F)c4)cc3F)cn(C)c2n1 (stereo not shown) [Example 87, N-(4-(4-amino-2,7-dimethyl-7H-pyrrolo[2,3-d]pyrimidin-5-yl)-3-fluorophenyl)-2-(3-fluoro-5-(trifluoromethyl)phenyl)-2-hydroxyacetamide]	1 to 25 nM	–	51 to 100 nM	–
Cc1nc(N)c2c(-c3ccc(NC(=O)C(O)c4cccc(F)c4)cc3C(F)(F)F)cn(C)c2n1 (stereo not shown) [Example 19, N-(4-(4-amino-2,7-dimethyl-7H-pyrrolo[2,3-d]pyrimidin-5-yl)-3-(trifluoromethyl)phenyl)-2-(3-fluorophenyl)-2-hydroxyacetamide]	1 to 25 nM	–	101 to 250 nM	–
Cc1cc(NC(=O)Cc2cccc3cnccc23)ccc1-c1cn(C)c2ncnc(N)c12 [Example 156, N-(4-(4-amino-7-methyl-7H-pyrrolo[2,3-d]pyrimidin-5-yl)-3-methylphenyl)-2-(isoquinolin-5-yl)acetamide]	51 to 100 nM	251 to 500 nM	–	–
CCc1cccc(C(O)C(=O)Nc2ccc(-c3cn(C)c4nc(C)nc(N)c34)c(Cl)c2)c1 (stereo not shown) [Example 97, N-(4-(4-amino-2,7-dimethyl-7H-pyrrolo[2,3-d]pyrimidin-5-yl)-3-chlorophenyl)-2-(3-ethylphenyl)-2-hydroxyacetamide]	1 to 25 nM	–	1 to 25 nM	–
Cc1nc(N)c2c(-c3cnc(NC(=O)C(O)c4cccc(C(F)(F)F)c4)cc3C)cn(C)c2n1 (stereo not shown) [Example 131, N-(5-(4-amino-2,7-dimethyl-7H-pyrrolo[2,3-d]pyrimidin-5-yl)-4-methylpyridin-2-yl)-2-hydroxy-2-(3-(trifluoromethyl)phenyl)acetamide]	26 to 50 nM	–	251 to 500 nM	–
Cc1c(-c2cn(C)c3ncnc(N)c23)ccc(NC(=O)C(O)c2cccc(F)c2)c1F (stereo not shown) [Example 118, N-(4-(4-amino-7-methyl-7H-pyrrolo[2,3-d]pyrimidin-5-yl)-2-fluoro-3-methylphenyl)-2-(3-fluorophenyl)-2-hydroxyacetamide]	26 to 50 nM	–	251 to 500 nM	–
Cc1cc(NC(=O)C(O)c2ccccc2)ccc1-c1cn(C)c2ncnc(N)c12 (stereo not shown) [Example 5, N-(4-(4-amino-7-methyl-7H-pyrrolo[2,3-d]pyrimidin-5-yl)-3-methylphenyl)-2-hydroxy-2-phenylacetamide]	1 to 25 nM	–	26 to 50 nM	–
COc1cc(NC(=O)C(O)c2cccc(F)c2)ccc1-c1cn(C)c2ncnc(N)c12 (stereo not shown) [Example 103, N-(4-(4-amino-7-methyl-7H-pyrrolo[2,3-d]pyrimidin-5-yl)-3-methoxyphenyl)-2-(3-fluorophenyl)-2-hydroxyacetamide]	101 to 250 nM	–	2000 to 3000 nM	–
Cc1cc(NC(=O)Oc2ccccc2)ccc1-c1cn(C)c2ncnc(N)c12 [Example 169, phenyl (4-(4-amino-7-methyl-7H-pyrrolo[2,3-d]pyrimidin-5-yl)-3-methylphenyl)carbamate]	3000 to 4000 nM	–	–	> 5000 nM
Cc1cc(NC(=O)CCc2ccccc2)ccc1-c1cn(C)c2ncnc(N)c12 [Example 168, N-(4-(4-amino-7-methyl-7H-pyrrolo[2,3-d]pyrimidin-5-yl)-3-methylphenyl)-3-phenylpropanamide]	101 to 250 nM	1000 to 2000 nM	–	–
Cc1nc(N)c2c(-c3ccc(NC(=O)C(O)c4cccc(C(F)(F)F)c4)cc3F)cn(C)c2n1 (stereo not shown) [Example 78, N-(4-(4-amino-2,7-dimethyl-7H-pyrrolo[2,3-d]pyrimidin-5-yl)-3-fluorophenyl)-2-hydroxy-2-(3-(trifluoromethyl)phenyl)acetamide]	1 to 25 nM	1 to 25 nM	–	–
Cc1nc(N)c2c(-c3ccc(NC(=O)C(O)c4cccc(F)c4)cc3C(F)(F)F)cn(C)c2n1 (stereo not shown) [Example 20, N-(4-(4-amino-2,7-dimethyl-7H-pyrrolo[2,3-d]pyrimidin-5-yl)-3-(trifluoromethyl)phenyl)-2-(3-fluorophenyl)-2-hydroxyacetamide]	51 to 100 nM	–	1000 to 2000 nM	–
Cc1cc(NC(=O)C(O)c2cccc(F)c2)cc(F)c1-c1cn(C)c2ncnc(N)c12 (stereo not shown) [Example 124, N-(4-(4-amino-7-methyl-7H-pyrrolo[2,3-d]pyrimidin-5-yl)-3-fluoro-5-methylphenyl)-2-(3-fluorophenyl)-2-hydroxyacetamide]	1 to 25 nM	1 to 25 nM	–	–
Cc1nc(N)c2c(-c3ccc(NC(=O)C(O)c4cccc(F)c4)c(F)c3F)cn(C)c2n1 (single isomer, unassigned) [Example 109, N-(4-(4-amino-2,7-dimethyl-7H-pyrrolo[2,3-d]pyrimidin-5-yl)-2,3-difluorophenyl)-2-(3-fluorophenyl)-2-hydroxyacetamide]	251 to 500 nM	–	1000 to 2000 nM	–
Cc1cc(NC(=O)c2ccccc2)ccc1-c1cn(C)c2ncnc(N)c12 [Example 167, N-(4-(4-amino-7-methyl-7H-pyrrolo[2,3-d]pyrimidin-5-yl)-3-methylphenyl)benzamide]	101 to 250 nM	3000 to 4000 nM	–	–
Cc1nc(N)c2c(-c3ccc(NC(=O)C(O)c4cccc(F)c4)cc3F)cn(C)c2n1 (stereo not shown) [Example 79, N-(4-(4-amino-2,7-dimethyl-7H-pyrrolo[2,3-d]pyrimidin-5-yl)-3-fluorophenyl)-2-(3-fluorophenyl)-2-hydroxyacetamide]	51 to 100 nM	–	501 to 1000 nM	–
Cc1nc(N)c2c(-c3ccc(NC(=O)C(O)c4cc(F)cc(C(F)(F)F)c4)c(F)c3F)cn(C)c2n1 (single isomer, unassigned) [Example 116, N-(4-(4-amino-2,7-dimethyl-7H-pyrrolo[2,3-d]pyrimidin-5-yl)-2,3-difluorophenyl)-2-(3-fluoro-5-(trifluoromethyl)phenyl)-2-hydroxyacetamide]	251 to 500 nM	–	251 to 500 nM	–
Cc1nc(N)c2c(-c3ccc(NC(=O)C(O)c4cccc(F)c4)cc3)cn(C)c2n1 (stereo not shown) [Example 24, N-(4-(4-amino-2,7-dimethyl-7H-pyrrolo[2,3-d]pyrimidin-5-yl)phenyl)-2-(3-fluorophenyl)-2-hydroxyacetamide]	26 to 50 nM	–	1000 to 2000 nM	–
Cc1nc(N)c2c(-c3cnc(NC(=O)C(O)c4cccc(F)c4)cc3C)cn(C)c2n1 (stereo not shown) [Example 133, N-(5-(4-amino-2,7-dimethyl-7H-pyrrolo[2,3-d]pyrimidin-5-yl)-4-methylpyridin-2-yl)-2-(3-fluorophenyl)-2-hydroxyacetamide]	251 to 500 nM	–	4000 to 5000 nM	–
Cc1nc(N)c2c(-c3ccc(NC(=O)C(O)c4cc(F)cc(F)c4)cc3C)cn(C)c2n1 (stereo not shown) [Example 52, N-(4-(4-amino-2,7-dimethyl-7H-pyrrolo[2,3-d]pyrimidin-5-yl)-3-methylphenyl)-2-(3,5-difluorophenyl)-2-hydroxyacetamide]	1 to 25 nM	–	1 to 25 nM	–
Cc1cc(NC(=O)[C@H](N)c2ccccc2)ccc1-c1cn(C)c2ncnc(N)c12 [Example 26, (R)-2-amino-N-(4-(4-amino-7-methyl-7H-pyrrolo[2,3-d]pyrimidin-5-yl)-3-methylphenyl)-2-phenylacetamide]	26 to 50 nM	501 to 1000 nM	–	–
Cc1cccc(C(O)C(=O)Nc2ccc(-c3cn(C)c4nc(C)nc(N)c34)c(F)c2)c1 (stereo not shown) [Example 73, N-(4-(4-amino-2,7-dimethyl-7H-pyrrolo[2,3-d]pyrimidin-5-yl)-3-fluorophenyl)-2-hydroxy-2-(m-tolyl)acetamide]	26 to 50 nM	–	501 to 1000 nM	–
CCc1cc(NC(=O)C(O)c2cccc(F)c2)ccc1-c1cn(C)c2nc(C)nc(N)c12 (stereo not shown) [Example 68, N-(4-(4-amino-2-2,7-dimethyl-7H-pyrrolo[2,3-d]pyrimidin-5-yl)-3-ethylphenyl)-2-(3-fluorophenyl)-2-hydroxyacetamide]	1 to 25 nM	–	26 to 50 nM	–
Cc1nc(N)c2c(-c3cnc(NC(=O)C(O)c4cccc(F)c4)cc3C)cn(C)c2n1 (stereo not shown) [Example 134, N-(5-(4-amino-2,7-dimethyl-7H-pyrrolo[2,3-d]pyrimidin-5-yl)-4-methylpyridin-2-yl)-2-(3-fluorophenyl)-2-hydroxyacetamide]	1 to 25 nM	–	101 to 250 nM	–
CCc1cc(NC(=O)C(O)c2cccc(F)c2)ccc1-c1cn(C)c2nc(C)nc(N)c12 (stereo not shown) [Example 69, N-(4-(4-amino-2,7-dimethyl-7H-pyrrolo[2,3-d]pyrimidin-5-yl)-3-ethylphenyl)-2-(3-fluorophenyl)-2-hydroxyacetamide]	101 to 250 nM	–	2000 to 3000 nM	–
